# Active and inactive are the calls of the source. The calls are words filed in the database; no cut-off is given here.
# Tests used:
# Candida albicans [1] = assay: Antifungal activity against FLC-resistant Candida albicans ATCC 14053 cultured in spider medium assessed as inhibition of hyphal formation at 1 ug/ml measured after 2 hrs by inverted microscopy; assay type: functional, organism-based; conditions: dose 1.0 µg/ml
# Candida albicans [2] = assay: Antifungal activity against FLC-resistant Candida albicans ATCC 14053 measured after 24 hrs by microdilution method; assay type: functional
# Candida albicans [3] = assay: In vivo antifungal activity against FLC-resistant Candida albicans ATCC 14053 infected in Balb/c mouse assessed as restoration of normal lung morphology at 2 mg/kg, ig measured after 6 days by H and E staining based histopathological analysis; assay type: functional, organism-based; conditions: time 6.0 day
# Candida albicans [4] = assay: In vivo antifungal activity against FLC-resistant Candida albicans ATCC 14053 infected in Balb/c mouse assessed as reduction in renal injury at 2 mg/kg, ig measured after 6 days by H and E staining based histopathological analysis; assay type: functional, organism-based; conditions: time 6.0 day
# Candida albicans [5] = assay: Induction of mitochondrial membrane potential loss in FLC-resistant Candida albicans ATCC 14053 at 1 ug/mL measured after 16 to 18 hrs by JC-1 staining based fluorescence assay; assay type: functional, organism-based; conditions: dose 1.0 µg/ml, time 16-18 hrs
# Candida albicans [6] = assay: Antifungal activity against FLC-sensitive Candida albicans SC5314 measured after 24 hrs by microdilution method; assay type: functional
# Candida albicans [7] = assay: Antifungal activity against clinical FLC-resistant Candida albicans 602 measured after 24 hrs by microdilution method; assay type: functional
# Candida albicans [8] = assay: Antifungal activity against FLC-resistant Candida albicans ATCC 14053 assessed as inhibition of hyphal formation by measuring down regulation of CYR1 gene expression at 8 ug/ml measured after 16 to 18 hrs by qRT-PCR analysis; assay type: functional, organism-based; conditions: dose 8.0 µg/ml, time 16-18 hrs
# Candida albicans [9] = assay: Antifungal activity against FLC-resistant Candida albicans ATCC 14053 assessed as reduction in intracellular ATP level at 1 ug/ml measured after 16 to 18 hrs by luminescence assay; assay type: functional, organism-based; conditions: dose 1.0 µg/ml, time 16-18 hrs
# Candida albicans [10] = assay: Antifungal activity against clinical FLC-resistant Candida albicans 187 measured after 24 hrs by microdilution method; assay type: functional
# Candida albicans [11] = assay: Antifungal activity against FLC-resistant Candida albicans ATCC 14053 assessed as inhibition of hyphal formation by measuring down regulation of EFG1 gene expression at 8 ug/ml measured after 16 to 18 hrs by qRT-PCR analysis; assay type: functional, organism-based; conditions: dose 8.0 µg/ml, time 16-18 hrs
# Candida albicans [12] = assay: Antifungal activity against clinical FLC-resistant Candida albicans 4508 measured after 24 hrs by microdilution method; assay type: functional
# [13] = Toxicity in Balb/c mouse infected with FLC-resistant Candida albicans ATCC 14053 assessed as weight loss at 2 mg/kg, ig measured daily for 6 days; assay type: organism-based; conditions: in vivo, po, 144 h, time 6 day
# Candida albicans [14] = assay: In vivo antifungal activity against FLC-resistant Candida albicans ATCC 14053 infected in Balb/c mouse assessed as reduction in infiltration of inflammatory cells at 2 mg/kg, ig measured after 6 days by H and E staining based histopathological analysis; assay type: functional, organism-based; conditions: time 6.0 day
# Candida albicans [15] = assay: Antifungal activity against FLC-resistant Candida albicans ATCC 14053 assessed as inhibition of hyphal formation by measuring down regulation of ALS3 gene expression at 8 ug/ml measured after 16 to 18 hrs by qRT-PCR analysis; assay type: functional, organism-based; conditions: dose 8.0 µg/ml, time 16-18 hrs
# Candida albicans [16] = assay: In vivo antifungal activity against FLC-resistant Candida albicans ATCC 14053 infected in Balb/c mouse assessed as reduction in severity of lesions in lungs at 2 mg/kg, ig measured after 6 days by H and E staining based histopathological analysis; assay type: functional, organism-based; conditions: time 6.0 day
# Candida albicans [17] = assay: Antifungal activity against FLC-resistant Candida albicans ATCC 14053 at 1 ug/mL measured over 48 hrs by time-killing assay; assay type: functional, organism-based; conditions: dose 1.0 µg/ml
# [18] = Toxicity in Balb/c mouse assessed as death at 2 mg/kg, ig measured daily for 6 days; assay type: organism-based; conditions: in vivo, po, 144 h, time 6 day
# Candida albicans [19] = assay: Antifungal activity against Clinical FLC-resistant Candida albicans 23 measured after 24 hrs by microdilution method; assay type: functional
# Candida albicans [20] = assay: In vivo antifungal activity against FLC-resistant Candida albicans ATCC 14053 infected in Balb/c mouse assessed as survival rate at 2 mg/kg, ig measured daily for 6 days (Rvb < 20%); assay type: functional; conditions: ATCC 14053, po, 144 h, time 6 day
# Candida albicans [21] = assay: Antifungal activity against clinical FLC-resistant Candida albicans 381 measured after 24 hrs by microdilution method; assay type: functional
# Candida albicans [22] = assay: In vivo antifungal activity against FLC-resistant Candida albicans ATCC 14053 infected in Balb/c mouse assessed as restoration of normal glomeruli morphology at 2 mg/kg, ig measured after 6 days by H and E staining based histopathological analysis; assay type: functional, organism-based; conditions: time 6.0 day
# Candida albicans [23] = assay: Antifungal activity against FLC-resistant Candida albicans ATCC 14053 assessed as inhibition of hyphal formation by measuring down regulation of ECE1 gene expression at 8 ug/ml measured after 16 to 18 hrs by qRT-PCR analysis; assay type: functional, organism-based; conditions: dose 8.0 µg/ml, time 16-18 hrs
# Candida albicans [24] = assay: In vivo antifungal activity against FLC-resistant Candida albicans ATCC 14053 infected in Balb/c mouse assessed as removal of colonized fungi at 2 mg/kg, ig measured after 6 days by H and E staining based histopathological analysis; assay type: functional, organism-based; conditions: time 6.0 day
# Candida albicans [25] = assay: Induction of reactive oxygen species production in FLC-resistant Candida albicans ATCC 14053 at 1 ug/mL measured after 16 to 18 hrs by DCFH-DA staining based fluorescence assay; assay type: functional, organism-based; conditions: dose 1.0 µg/ml, time 16-18 hrs
# [26] = Toxicity in Balb/c mouse assessed as weight loss at 2 mg/kg, ig measured daily for 6 days; assay type: organism-based; conditions: in vivo, po, 144 h, time 6 day
# Candida albicans [27] = assay: Antifungal activity against FLC-resistant Candida albicans ATCC 14053 cultured in SD +10% FBS liquid medium assessed as inhibition of hyphal formation at 1 ug/ml measured after 2 hrs by inverted microscopy; assay type: functional, organism-based; conditions: dose 1.0 µg/ml
# Candida albicans [28] = assay: Antifungal activity against clinical FLC-resistant Candida albicans 799 measured after 24 hrs by microdilution method; assay type: functional
# Candida albicans [29] = assay: Antifungal activity against clinical FLC-resistant Candida albicans 800 measured after 24 hrs by microdilution method; assay type: functional
# Candida albicans [30] = assay: Antifungal activity against clinical FLC-resistant Candida albicans 3511 measured after 24 hrs by microdilution method; assay type: functional
# Candida albicans [31] = assay: Antifungal activity against FLC-resistant Candida albicans ATCC 10231 measured after 24 hrs by microdilution method; assay type: functional
# Candida albicans [32] = assay: Antifungal activity against clinical FLC-resistant Candida albicans 550 measured after 24 hrs by microdilution method; assay type: functional
# Candida albicans [33] = assay: In vivo antifungal activity against FLC-resistant Candida albicans ATCC 14053 infected in Balb/c mouse assessed as reduction in severity of lesions in kidney at 2 mg/kg, ig measured after 6 days by H and E staining based histopathological analysis; assay type: functional, organism-based; conditions: time 6.0 day
# Candida albicans [34] = assay: In vivo antifungal activity against FLC-resistant Candida albicans ATCC 14053 infected in Balb/c mouse assessed as increase in organ coefficients of thymus at 2 mg/kg, ig measured after 6 days; assay type: functional, organism-based; conditions: time 6.0 day
# Candida albicans [35] = assay: Antifungal activity against clinical FLC-resistant Candida albicans 3816 measured after 24 hrs by microdilution method; assay type: functional
# Candida albicans [36] = assay: Antifungal activity against clinical FLC-resistant Candida albicans 808 measured after 24 hrs by microdilution method; assay type: functional
# Candida albicans [37] = assay: In vivo antifungal activity against FLC-resistant Candida albicans ATCC 14053 infected in Balb/c mouse assessed as restoration of normal kidney morphology at 2 mg/kg, ig measured after 6 days by H and E staining based histopathological analysis; assay type: functional, organism-based; conditions: time 6.0 day
# Candida albicans [38] = assay: Antifungal activity against FLC-resistant Candida albicans ATCC 14053 assessed as inhibition of hyphal formation by measuring down regulation of HWP1 gene expression at 8 ug/ml measured after 16 to 18 hrs by qRT-PCR analysis; assay type: functional, organism-based; conditions: dose 8.0 µg/ml, time 16-18 hrs
# Candida albicans [39] = assay: In vivo antifungal activity against FLC-resistant Candida albicans ATCC 14053 infected in Balb/c mouse assessed as reduction in kidney fungal load at 2 mg/kg, ig measured after 6 days; assay type: functional, organism-based; conditions: time 6.0 day
# Candida albicans [40] = assay: Antifungal activity against FLC-resistant Candida albicans ATCC 14053 assessed as inhibition of hyphal formation by measuring down regulation of RAS1 gene expression at 8 ug/ml measured after 16 to 18 hrs by qRT-PCR analysis; assay type: functional, organism-based; conditions: dose 8.0 µg/ml, time 16-18 hrs
# Candida albicans [41] = assay: In vivo antifungal activity against FLC-resistant Candida albicans ATCC 14053 infected in Balb/c mouse assessed as reduction in lung fungal load at 2 mg/kg, ig measured after 6 days; assay type: functional, organism-based; conditions: time 6.0 day
# Candida albicans [42] = assay: Antifungal activity against clinical FLC-resistant Candida albicans 4574 measured after 24 hrs by microdilution method; assay type: functional
# Candida albicans [43] = assay: In vivo antifungal activity against FLC-resistant Candida albicans ATCC 14053 infected in Balb/c mouse assessed as increase in organ coefficients of spleen at 2 mg/kg, ig measured after 6 days; assay type: functional, organism-based; conditions: time 6.0 day
structure (smiles),measurement,setting,value
OC(Cn1cncn1)(Cn1cncn1)c1ccc(F)cc1F [FLUCONAZOLE],inhibition,Candida albicans [1],inactive
same,MIC80,Candida albicans [2],> 40 µg/mL
same,Activity,Candida albicans [3],inactive
same,Activity,Candida albicans [4],inactive
same,Activity,Candida albicans [5],Active
same,MIC80,Candida albicans [6],5.79 µg/mL
same,MIC80,Candida albicans [7],> 40 µg/mL
same,inhibition,Candida albicans [8],Active
same,Activity,Candida albicans [9],Active
same,MIC80,Candida albicans [10],> 40 µg/mL
same,inhibition,Candida albicans [11],Active
same,MIC80,Candida albicans [12],> 40 µg/mL
same,Activity,[13],Toxic
same,Activity,Candida albicans [14],inactive
same,inhibition,Candida albicans [15],Active
same,Activity,Candida albicans [16],inactive
same,Activity,Candida albicans [17],Active
same,Activity,[18],Non-Toxic
same,MIC80,Candida albicans [19],> 40 µg/mL
same,survival at 2 mg/kg,Candida albicans [20],30%
same,MIC80,Candida albicans [21],> 40 µg/mL
same,Activity,Candida albicans [22],inactive
same,inhibition,Candida albicans [23],Active
same,Activity,Candida albicans [24],inactive
same,Activity,Candida albicans [25],Active
same,Activity,[26],Non-Toxic
same,inhibition,Candida albicans [27],inactive
same,MIC80,Candida albicans [28],> 40 µg/mL
same,MIC80,Candida albicans [29],> 40 µg/mL
same,MIC80,Candida albicans [30],> 40 µg/mL
same,MIC80,Candida albicans [31],> 40 µg/mL
same,MIC80,Candida albicans [32],> 40 µg/mL
same,Activity,Candida albicans [33],inactive
same,Activity,Candida albicans [34],Active
same,MIC80,Candida albicans [35],> 40 µg/mL
same,MIC80,Candida albicans [36],> 40 µg/mL
same,Activity,Candida albicans [37],inactive
same,inhibition,Candida albicans [38],Active
same,Activity,Candida albicans [39],Active
same,inhibition,Candida albicans [40],Active
same,Activity,Candida albicans [41],inactive
same,MIC80,Candida albicans [42],> 40 µg/mL
same,Activity,Candida albicans [43],Active
